Assay results as given in patent US9067937B2 (priority 2012, dated 2015).
Structures can show the parent of a compound that is named as a salt.

Assays:
MELK = MELK (Homo sapiens, UniProt Q14680); assay: Kinase assay (IMAP fluorescence polarization, FITC-labeled histone H3 peptide); format: biochemical; details: 50 micro-M ATP
Procedure: MELK activity was determined in the presence or absence of compounds using fluorescein isothiocyanate-labeled (FITC-labeled) histone H3 peptide as a substrate. […] The serially diluted compounds, 0.8 ng/micro-L […] (Carna Biosciences) and 100 nM FITC-labeled histone H3 peptide were reacted in a reaction buffer (20 mM HEPES, 0.01% Tween-20, 0.3 mM MgCl2, 2 mM dithiothreitol, 50 micro-M ATP, pH 7.4) at room temperature for 1 hour. The reaction was stopped by the addition of three fold assay volume of progressive binding solution. […] IC50 values were calculated by nonlinear four parameter fit using SigmaPlot, version 10.0 (Systat Software, Inc.).

22Rv1 cells = assay: Cell-based assay, anti-proliferative activity (Cell Counting Kit-8, 72 hours); design: species or system human; details: Homo sapiens, 22Rv1, 72 h, read-out: IC50 (μM) (22Rvl)
Procedure: (§1) Active candidate inhibitors against MELK were evaluated for their target-specific cytotoxicity using 22Rv1, T47D, A549, DU4475 and HT-1197 cells was used for negative control. 100 micro-L of cell suspension was seeded onto 96-well microtiter plate (ViewPlate-96FTC, PerkinElmer). The initial cell concentration of 22Rv1, T47D, A549, DU4475, and HT1197 were 3,000 cells/well, 2,000 cells/well and 2,500 cells/well, respectively. Cellular growth was determined using Cell Counting Kit-8 (DOJINDO) at 72 hours after the exposure of the candidate inhibitors. […] Accurate IC50 values were calculated as described previously.

A549 cells = assay: as above; design: species or system human; details: Homo sapiens, A549, 72 h, read-out: IC50 (μM) (A549)
Procedure: as §1

DU4475 cells = assay: as above; design: species or system human; details: Homo sapiens, DU-4475, 72 h, read-out: IC50 (μM) (DU4475)
Procedure: as §1

T47D cells = assay: as above; design: species or system human; details: Homo sapiens, T47D, 72 h, read-out: IC50 (μM) (T47D)
Procedure: as §1

HT1197 cells = assay: Cell-based assay, anti-proliferative activity, MELK-negative control (Cell Counting Kit-8, 72 hours); design: species or system human; details: Homo sapiens, HT1197, 72 h, read-out: IC50 (μM) (HTll97)
Procedure: as §1, with “100” for “Active candidate inhibitors against MELK were evaluated for their target-specific cytotoxicity using 22Rv1, T47D, A549, DU4475 and HT-1197 cells was used for negative control. 100”

Chain of MELK (Q14680 whole entry, looked up): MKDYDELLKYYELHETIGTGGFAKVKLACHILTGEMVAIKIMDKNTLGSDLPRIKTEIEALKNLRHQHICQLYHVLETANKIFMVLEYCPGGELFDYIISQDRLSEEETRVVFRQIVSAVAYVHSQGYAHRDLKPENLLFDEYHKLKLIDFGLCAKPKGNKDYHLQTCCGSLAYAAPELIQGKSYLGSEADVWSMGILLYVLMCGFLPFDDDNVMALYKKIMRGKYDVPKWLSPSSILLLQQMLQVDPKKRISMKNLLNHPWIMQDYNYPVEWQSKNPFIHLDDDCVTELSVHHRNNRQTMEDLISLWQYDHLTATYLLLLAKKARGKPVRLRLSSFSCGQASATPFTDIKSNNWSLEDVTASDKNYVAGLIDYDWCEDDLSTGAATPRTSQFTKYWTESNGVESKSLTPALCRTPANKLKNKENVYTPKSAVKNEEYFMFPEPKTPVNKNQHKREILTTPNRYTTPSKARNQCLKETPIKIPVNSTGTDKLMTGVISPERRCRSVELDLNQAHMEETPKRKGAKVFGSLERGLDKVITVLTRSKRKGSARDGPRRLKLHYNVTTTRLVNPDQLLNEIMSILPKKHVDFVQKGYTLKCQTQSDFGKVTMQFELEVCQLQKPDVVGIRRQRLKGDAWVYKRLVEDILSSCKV

SMILES | IC50 (MELK) [µM] | IC50 (22Rv1 cells) [µM] | IC50 (A549 cells) [µM] | IC50 (DU4475 cells) [µM] | IC50 (T47D cells) [µM] | IC50 (HT1197 cells) [µM]
COc1cc(-c2ccc3ncc(C(C)=O)c(Nc4ccc(CCN(C)C)cc4)c3n2)cc(Cl)c1O [Example 31, 1-(6-(3-Chloro-4-hydroxy-5-methoxyphenyl)-4-(4-(2-(dimethyl-amino)ethyl)phenylamino)-1,5-naphthyridin-3-yl) ethanone dihydrochloride] | 0.0037 | 0.65 | 0.31 | 0.19 | 0.41 | 4.4
CN(C)[C@H]1CC[C@H](Nc2c(S(C)(=O)=O)cnc3ccc(-c4cc(F)c(O)c(Cl)c4)nc23)CC1 [Example 32, 2-Chloro-4-(8-(trans-4-(dimethylamino)-cyclohexylamino)-7-(methylsulfonyl)-1,5-naphthyridin-2-yl)-6-fluorophenol dihydrochloride] | 0.0016 | 0.046 | 0.2 | 0.0063 | 0.024 | 3.1
CC(=O)c1cnc2ccc(-c3cc(Cl)c(O)c(Cl)c3)nc2c1Nc1cnn(C2CCN(C)CC2)c1 [Example 33, 1-[6-(3,5-Dichloro-4-hydroxyphenyl)-4-[1-(1-methylpiperidin-4-yl)-1H-pyrazol-4-ylamino]-1,5-naphthyridin-3-yl]ethanone dihydrochloride] | 0.0078 | 0.64 | 0.93 | 0.34 | 0.35 | 100
CC(=O)c1cnc2ccc(-c3cc(Cl)c(O)c(Cl)c3)nc2c1Nc1ccc(CN2CCN(C)CC2)cc1 [Example 34, 1-(6-(3,5-Dichloro-4-hydroxyphenyl)-4-(4-((4-methylpiperazin-1-yl)methyl)-phenylamino)-1,5-naphthyridin-3-yl)ethanone trihydrochloride] | 0.0061 | 0.21 | 0.19 | 0.096 | 0.11 | 1.6
CC(=O)c1cnc2ccc(-c3cc(F)c(O)c(Cl)c3)nc2c1Nc1ccc(CN2CCN(C)CC2)cc1 [Example 35, 1-[6-(3-Chloro-5-fluoro-4-hydroxyphenyl)-4-{4-[(4-methylpiperazin-1-yl)methyl]phenylamino}-1,5-naphthyridin-3-yl]ethanone trihydrochloride] | 0.037 | 0.65 | 0.41 | 0.31 | 0.22 | 3.8
CC(=O)c1cnc2ccc(-c3cc(Cl)c(O)c(Cl)c3)nc2c1N1CCC(CCN2CCCC2)CC1 [Example 36, 1-[6-(3,5-Dichloro-4-hydroxyphenyl)-4-{4-[2-(pyrrolidin-1-yl)ethyl]piperidin-1-yl}-1,5-naphthyridin-3-yl]ethanone dihydrochloride] | 0.0021 | 0.36 | 0.63 | 0.22 | 0.21 | 4.7
CC(=O)c1cnc2ccc(-c3cc(F)c(O)c(Cl)c3)nc2c1N1CCC(CCN2CCCC2)CC1 [Example 37, 1-[6-(3-Chloro-5-fluoro-4-hydroxyphenyl)-4-{4-[2-(pyrrolidin-1-yl)ethyl]piperidin-1-yl}-1,5-naphthyridin-3-yl]ethanone dihydrochloride] | 0.01 | 0.49 | 1.2 | 0.42 | 0.25 | 7.2
CC(=O)c1cnc2ccc(-c3cc(Cl)c(O)c(Cl)c3)nc2c1Nc1ccc(NCCN(C)C)nc1 [Example 38, 1-[6-(3,5-Dichloro-4-hydroxyphenyl)-4-{6-[2-(dimethylamino)ethylamino]pyridin-3-ylamino}-1,5-naphthyridin-3-yl]ethanone trihydrochloride] | 0.011 | 0.24 | 0.26 | 0.069 | 0.11 | 9.5
CC(=O)c1cnc2ccc(-c3cc(F)c(O)c(Cl)c3)nc2c1Nc1ccc(NCCN(C)C)nc1 [Example 39, 1-[6-(3-Chloro-5-fluoro-4-hydroxyphenyl)-4-{6-[2-(dimethylamino)ethylamino]pyridin-3-ylamino}-1,5-naphthyridin-3-yl]ethanone trihydrochloride] | 0.03 | 0.38 | 0.44 | 0.19 | 0.12 | 10
N[C@H]1CCCN(c2ccc(Nc3c(C(=O)C4CC4)cnc4ccc(-c5cc(Cl)c(O)c(Cl)c5)nc34)cn2)C1 [Example 40, (S)-{4-[6-(3-Aminopiperidin-1-yl)pyridin-3-ylamino]-6-(3,5-dichloro-4-hydroxyphenyl)-1,5-naphthyridin-3-yl}(cyclopropyl)methanone trihydrochloride] | 0.0012 | 0.034 | 0.29 | 0.02 | 0.025 | 4.2
CC(=O)c1cnc2ccc(-c3cc(Cl)c(O)c(Cl)c3)nc2c1Nc1cnc(N2CCC(N)C2)nc1 (stereo not drawn) [Example 41, 1-{4-[2-(3-Aminopyrrolidin-1-yl)pyrimidin-5-ylamino]-6-(3,5-dichloro-4-hydroxyphenyl)-1,5-naphthyridin-3-yl}ethanone trihydrochloride] | 0.0017 | 0.052 | 0.27 | 0.026 | 0.027 | 100
CC(=O)c1cnc2ccc(-c3cn[nH]c3)nc2c1N[C@H]1CC[C@H](CN(C)C)CC1 [Example 42, 1-(4-{trans-4-[(Dimethylamino)methyl]cyclohexylamino}-6-(1H-pyrazol-4-yl)-1,5-naphthyridin-3-yl)ethanone trihydrochloride] | 0.017 | 0.063 | 0.049 | 0.045 | 0.036 | 0.06
CC(=O)c1cnc2ccc(-c3cc(Cl)c(O)c(Cl)c3)nc2c1N[C@H]1CC[C@H](CO)CC1 [Example 43, 1-(6-{3,5-Dichloro-4-hydroxyphenyl)-4-[trans-4-(hydroxymethyl)cyclohexyl]amino}-1,5-naphthyridin-3-yl)ethanone hydrochloride] | 0.0031 | 0.085 | 0.057 | 0.019 | 0.024 | 0.64
CN(C)C[C@H]1CC[C@H](Nc2c(C(=O)CO)cnc3ccc(-c4cc(Cl)c(O)c(Cl)c4)nc23)CC1 [Example 44, 1-[6-(3,5-Dichloro-4-hydroxyphenyl)-4-{trans-4-[(dimethylamino)methyl]cyclohexyl-amino}-1,5-naphthyridin-3-yl]-2-hydroxyethanone dihydrochloride] | 0.0003 | 0.006 | 0.0067 | 0.0017 | 0.0029 | 0.2
CC(=O)c1cnc2ccc(-c3cc(Cl)c(O)c(Cl)c3)nc2c1NC1CCN(C)CC1 [Example 45, 1-{6-(3,5-Dichloro-4-hydroxyphenyl)-4-[(1-methylpiperidin-4-yl)amino]-1,5-naphthyridin-3-yl}ethanone] | 0.0058 | 0.096 | 0.065 | 0.096 | 0.086 | 0.45
CC(=O)c1cnc2ccc(-c3cc(F)c(O)c(Cl)c3)nc2c1NC1CCN(C)CC1 [Example 46, 1-{6-(3-Chloro-5-fluoro-4-hydroxyphenyl)-4-[(1-methylpiperidin-4-yl)amino]-1,5-naphthyridin-3-yl}ethanone] | 0.0061 | 0.14 | 0.098 | 0.14 | 0.092 | 0.53
